Assay results from patent US20080300232A1, “N-Piperidine Derivatives as Ccr3 Modulators” (ASTRAZENECA AB, priority 2004, published 2008).

Key:
[1] = biological target: T1, human Melanin concentrating hormone receptor 1 (MCH1r) (Homo sapiens, UniProt Q99705); test: MCH1 receptor radioligand binding (125I-MCH, CHO-K1 cell membranes); conditions: CHO-K1 membranes expressing human MCH1r, 30° C., 60 minutes, read-out: IC50 in human MCHr binding assay
T1 construct: expressed in transfected cells; host or cells: CHO-K1
T1 sequence (Q99705 whole entry): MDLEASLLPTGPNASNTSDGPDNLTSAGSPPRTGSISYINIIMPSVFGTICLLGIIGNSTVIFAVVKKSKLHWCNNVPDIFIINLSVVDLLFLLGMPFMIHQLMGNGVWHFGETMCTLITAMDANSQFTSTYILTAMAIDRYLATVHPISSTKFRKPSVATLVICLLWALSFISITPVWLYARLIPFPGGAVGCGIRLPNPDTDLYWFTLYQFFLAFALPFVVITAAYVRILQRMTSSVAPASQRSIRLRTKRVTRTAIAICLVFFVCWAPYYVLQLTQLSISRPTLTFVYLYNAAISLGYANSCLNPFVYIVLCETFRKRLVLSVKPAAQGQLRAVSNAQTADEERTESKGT
Procedure: MCH1 Receptor Radioligand Binding.
Assays were performed on membranes prepared from CHO—K1 cells expressing the human Melanin concentrating hormone receptor 1 (MCH1r). Assays were performed in a 96-well plate format in a final reaction volume of 200 μl per well. Each well contained 6 μg of membrane proteins diluted in binding buffer (50 mM Tris, 3 mM MgCl2, 0.05% bovine serum albumin and the radioligand ^125I-MCH (IM344 Amersham) was added to give 10 000 cpm (counts per minute) per well. Each well contained 2 μl of the appropriate concentration of competitive antagonist prepared in DMSO and left to stand at 30° C. for 60 minutes. Non-specific binding was determined as that remaining following incubation with 1 μM MCH (Melanin concentrating hormone, H-1482 Bachem). The reaction was terminated by transfer of the reaction to GF/A filters using a Micro96 Harvester (Skatron Instruments, Norway). Filters were washed with assay buffer. Radioligand retained on the filters was quantified using al450 Microbeta TRILUX (Wallac, Finland).
Non-specific binding was subtracted from all values determined. Maximum binding was that determined in the absence of any competitor following subtraction of the value determined for non-specific binding. Binding of compounds at various concentrations was plotted according to the equation
and IC50 estimated where A is the bottom plateau of the curve i.e. the final minimum y value B is the top of the plateau of the curve i.e. the final maximum y value C is the x value at the middle of the curve. This represents the log EC50 value when A+B=100 D is the slope factor. x is the original known x values. y is the original known y values.

[2] = biological target: T2, recombinant hMCHr (Homo sapiens, UniProt Q99705); test: MCH1 functional assay ([35S]GTPγS binding, membranes with recombinant hMCHr); format: biochemical; conditions: ED80 concentration of MCH, 45 min at 30° C., read-out: IC50 of antagonists in MCH1 functional assay
T2 construct: purchased Euroscreen
T2 sequence (Q99705 whole entry): as above
Procedure: Membranes expressing recombinant hMCHr (5.45 pmol/mg protein; Euroscreen) were prepared in assay buffer (50 mM HEPES, 100 mM NaCl, 5 mM MgCl2, 1 mM EDTA, 200 μM DTT, 20 μM GDP (Sigma) containing 0.1 μg/ml BSA, pH7.4) before assay. The assays were performed using membranes at 6 μg/well in an assay volume of 200 μl and the appropriate concentrations of compounds prepared in DMSO. The reaction was started by addition of 0.056 nM [^35S]GTPγS (Specific activity >1000 Ci/mmol; Amersham) and an ED80 concentration of MCH (determined for each membrane and each MCH batch). Non-specific binding was determined using 20 μM non-radiolabelled GTPγS. Plates were incubated for 45 min at 30° C. Free and bound GTPγS were separated by filtration binding using GF/B filter mats presoaked in wash buffer (50 mM Tris, 5 mM MgCl2, 50 mM NaCl, pH 7.4) using a Micro96 cell harvester (Skatron Instruments) and the filters then dried at 50° C. before counting using al450 Microbeta TRILUX (Wallac).
Data are means ±SD for experiments performed in triplicate. IC50 values of antagonists were determined using non-linear regression analysis of concentration response curves using Activity Base.

[3] = tested on: Male Wistar-Hanover rats; test: Pharmacodynamic effect in rat (food intake and body weight after fasting); format: in vivo; conditions: 16.7 μmol/kg i.p. amorphous nanoparticle formulation, time interval 0-4 h
Procedure: Pharmacodynamic Effect in Rat
Male Wistar-Hanover rats (Charles River, 300-350 grams) were acclimated to individually housing in conventional cages (Makrolon III) with 12:12 hour light-dark photoperiod (lights on at 06.00) in a temperature (20-22° C.) and humidity (40-60%) controlled room. R-3 lab chow (Lactanin, Vadstena, Sweden) and tap water from bottles were allowed ad libidum. At 16.00 on the day before experiments, animals were weighed & food (but not water) was removed. At 08.00 on experiment day, animals were weighed & compound (i.p. amorphous nanoparticle formulation, 5 ml/kg) or vehicle (3-10% DMA depending on compound formulation) administered. Animals were returned to their home cages & given access to a weighed amount of food. This food was then re-weighed 1, 2, 4, 6 & 24 hours later, and food consumption calculated by the difference from initial food weight.
Animals were further weighed at the 24-hr timepoint, and change in body weight over the treatment period was calculated.

Structure (SMILES)	IC50 [1]	IC50 [2]	reduced food intake [3]
O=C(CCc1cccc(Cl)c1)NC1CCN(Cc2ccn(-c3ccc(C(F)(F)F)cc3)c2)CC1 [Example 29, 3-(3-chlorophenyl)-N-[1-({1-[4-(trifluoromethyl)phenyl]-1H-pyrrol-3-yl}methyl)piperidin-4-yl]propanamide]	66 nM	66 nM	
N#Cc1ccccc1OCC(=O)NC1CCN(Cc2ccn(-c3ccc(C(F)(F)F)cc3)c2)CC1 [Example 34, 2-(2-cyanophenoxy)-N-[1-({1-[4-(trifluoromethyl)phenyl]-1H-pyrrol-3-yl}methyl)piperidin-4-yl]acetamide]			20%
O=C(COc1cccc(Cl)c1)NC1CN(Cc2ccn(-c3ccc(C(F)(F)F)cc3)c2)C1 [Example 41, 2-(3-chlorophenoxy)-N-[1-({1-[4-(trifluoromethyl)phenyl]-1H-pyrrol-3-yl}methyl)azetidin-3-yl]acetamide]	39 nM		

The remaining compounds from weak to strong by IC50 [1], led by results:

IC50 [1]	IC50 [2]	Structure (SMILES)	reduced food intake [3]
167 nM	45 nM	COc1ccc(-n2ccc(CN3CCC(NC(=O)COc4cccc(Cl)c4)CC3)c2)cc1 [Example 3, 2-(3-chlorophenoxy)-N-({[1-(4-methoxyphenyl)-1H-pyrrol-3-yl]methyl}piperidin-4-yl)acetamide]	
105 nM	111 nM	O=C(COc1cccc(Cl)c1)NC1CCN(Cc2ccc(-c3ccc(Cl)cc3)o2)CC1 [Example 8, 2-(3-chlorophenoxy)-N-(1-{[5-(4-chlorophenyl)-2-furyl]methyl}piperidin-4-yl)acetamide]	
27 nM		O=C(COc1ccc(F)c(F)c1)NC1CCN(Cc2ccn(-c3ccc(C(F)(F)F)cc3)c2)C1 (stereo not drawn) [Example 44, 2-(3,4-difluorophenoxy)-N-[1-({1-[4-(trifluoromethyl)phenyl]-1H-pyrrol-3-yl}methyl)pyrrolidin-3-yl]acetamide]	
